PubChem BioAssay (NCI)
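Tested at 5 concentrations; 48 h exposure; 96-well plates; endpoints linearly interpolated, else capped at highest concentration. GI50 = concentration required for 50% inhibition of growth. At the TGI there is no net growth.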

Tests used:
Assay in all cases: NCI-60 cell line screen, 48 h
[1] = system: NCI-H226 lung
[2] = system: NCI-H23 lung
[3] = system: NCI-H460 lung
[4] = system: NCI-H522 lung
[5] = system: NCI/ADR-RES ovarian
[6] = system: OVCAR-3 ovarian
[7] = system: OVCAR-4 ovarian
[8] = system: OVCAR-5 ovarian
[9] = system: OVCAR-8 ovarian
[10] = system: PC-3 prostate
[11] = system: RPMI-8226 leukemia
[12] = system: RXF 393 renal
[13] = system: SF-268 CNS
[14] = system: SF-295 CNS
[15] = system: SF-539 CNS
[16] = system: SK-MEL-2 melanoma
[17] = system: SK-MEL-28 melanoma
[18] = system: SK-MEL-5 melanoma
[19] = system: SK-OV-3 ovarian
[20] = system: SN12C renal
[21] = system: SNB-19 CNS
[22] = system: SNB-75 CNS
[23] = system: SR leukemia
[24] = system: SW-620 colon
[25] = system: T-47D breast
[26] = system: TK-10 renal
[27] = system: U251 CNS
[28] = system: UACC-257 melanoma
[29] = system: UACC-62 melanoma
[30] = system: UO-31 renal

SMILES: CCOc1ccc(-c2cc(-c3cc(C(C)C)c(O)cc3C)nn2-c2ccc(S(N)(=O)=O)cc2)cc1
- TGI [1]: 37 µM
- GI50 [2]: 6.86 µM
- TGI [2]: 20.5 µM
- GI50 [3]: 5.21 µM
- TGI [3]: 18.1 µM
- GI50 [4]: 2.75 µM
- TGI [4]: 11 µM
- GI50 [5]: 3.15 µM
- TGI [5]: 12.2 µM
- GI50 [6]: 4.55 µM
- TGI [6]: 15.3 µM
- GI50 [7]: 7.29 µM
- TGI [7]: 21 µM
- GI50 [8]: 15.7 µM
- TGI [8]: 29.2 µM
- GI50 [9]: 7.24 µM
- TGI [9]: 21.6 µM
- GI50 [10]: 5.47 µM
- TGI [10]: 19.6 µM
- GI50 [11]: 4.29 µM
- TGI [11]: 22.2 µM
- GI50 [12]: 4.45 µM
- TGI [12]: 17.2 µM
- GI50 [13]: 7.22 µM
- TGI [13]: 21.4 µM
- GI50 [14]: 9.37 µM
- TGI [14]: 21.3 µM
- GI50 [15]: 5.51 µM
- TGI [15]: 17.7 µM
- GI50 [16]: 7.28 µM
- TGI [16]: 20.8 µM
- GI50 [17]: 11.7 µM
- TGI [17]: 24 µM
- GI50 [18]: 5.3 µM
- TGI [18]: 17.8 µM
- GI50 [19]: 10.7 µM
- TGI [19]: 22.7 µM
- GI50 [20]: 6.66 µM
- TGI [20]: 20.1 µM
- GI50 [21]: 12.3 µM
- TGI [21]: 24.8 µM
- GI50 [22]: 2.48 µM
- TGI [22]: 13 µM
- GI50 [23]: 1.8 µM
- TGI [23]: 43.8 µM
- GI50 [24]: 5.94 µM
- TGI [24]: 20 µM
- GI50 [25]: 3.71 µM
- TGI [25]: 17 µM
- GI50 [26]: 15.6 µM
- TGI [26]: 29.1 µM
- GI50 [27]: 5.29 µM
- TGI [27]: 18.6 µM
- GI50 [28]: 10.4 µM
- TGI [28]: 22.5 µM
- GI50 [29]: 7.25 µM
- TGI [29]: 20.4 µM
- GI50 [30]: 5.46 µM
- TGI [30]: 18.3 µM
